Reference: ChEMBL document CHEMBL2169801, “Development of o-chlorophenyl substituted pyrimidines as exceptionally potent aurora kinase inhibitors” (J Med Chem, 2012)
≈ marks a conversion by molar mass, not a printed value.

Test: not given
Conditions: buffer

Structure (SMILES)	solubility
O=C(O)c1ccc(Nc2nccc(Nc3ccccc3Cl)n2)cc1O	Insoluble
O=C(O)c1ccc(Nc2ncc(F)c(Nc3ccccc3C(=O)O)n2)cc1	Insoluble

The remaining lines, values ahead:

solubility	Structure (SMILES)
Insoluble	O=C(O)c1ccc(Nc2nccc(Nc3ccccc3F)n2)cc1
Insoluble	O=C(O)c1ccc(Nc2nccc(Nc3ccccc3Cl)n2)cc1

Test: physchem
Conditions: buffer, pH 7.4

Structure (SMILES)	solubility [µg/mL]
Clc1ccccc1Nc1ccnc(Nc2ccc(-c3nnn[nH]3)cc2)n1	49 (≈ 134 µM)
Oc1cc(Nc2ncc(F)c(Nc3ccccc3Cl)n2)ccc1-c1nnn[nH]1	49 (≈ 123 µM)

The remaining lines, values ahead:

solubility [µg/mL]	Structure (SMILES)
49 (≈ 128 µM)	Fc1cnc(Nc2ccc(-c3nnn[nH]3)cc2)nc1Nc1ccccc1Cl
49 (≈ 123 µM)	Clc1ccccc1Nc1nc(Nc2ccc(-c3nnn[nH]3)cc2)ncc1Cl
